Measured values reported in patent US6472198B1, “Slow release substrates for driving microbial transformations of environmental contaminants” (The State of Oregon Acting by and through the State Board …, priority 1998, dated 2002).

Key:
[1] = tested on: Pt. Mugu groundwater and aquifer solids microcosm; experiment: Anaerobic reductive dechlorination of TCE in Pt. Mugu microcosm amended with TBOS; type: cell-based
[2] = tested on: indigenous microorganisms in groundwater (Lawrence Livermore Site 300); experiment: Anaerobic reductive dechlorination of TCE in Site 300 groundwater microcosms containing TKEBS; type: cell-based
Procedure: In initial studies, groundwater from Lawrence Livermore Laboratory(Site 300, D3 Well) was used to make up six different microcosms. Two of these microcosms were sterilized to form controls, one by the addition of mercuric chloride and the other by autoclaving. Two microcosms were amended with sodium benzoate (200 mg/L) as an additional carbon source and the last two were left untouched.
Later experiments were carried out to re-evaluate the anaerobic TCE transformation rates driven by TKEBS transformation. The culture used for these biodegradation studies were indigenous microorganisms stimulated from the groundwater (as described in Example 1) collected from the same site initially studied. The anaerobic biodegradation studies were carried out using 1L media bottles. The microcosms were prepared in an anaerobic glove box and then purged using treated (to remove oxygen) nitrogen to remove the hydrogen and carbon dioxide introduced into the microcosms from the glove box.
The groundwater was purged with treated nitrogen to remove all traces of TCE and cis-DCE prior to re-injection of TCE. Pure TCE was added to obtain concentrations of 100 mg/L(aqueous). […] The microcosms were analyzed for chlorinated ethenes, hydrogen, carbon dioxide, alcohols, and their fermentation products.

[3] = tested on: microbial culture grown on TBOS; experiment: Aerobic cometabolism of TCE by microorganisms grown on TBOS; type: cell-based
Procedure: (§1) Gas phase TCE and cis-DCE concentrations were measured by injecting 10-100 μL of a gaseous sample into a HP-5890 gas chromatograph connected to a photoionization detector (PID) followed by a flame ionization detector (FID). Chromatographic separation was carried-out with a 30-m megabore GSQ-PLOT column from J&W Scientific (Folsom, Calif.). The GC operating conditions were as follows: injector temperature, 250° C.; detector temperature: 280° C.; the column was initially maintained at 40° C. for 2 minutes and then heated to 220° C. at 15° C./minute.
The microcosms for aerobic cometabolism studies were carried out as described in Example 1 under the heading “Aerobic Biodegradation.” The bacterial culture used was that described in Example 1 under the heading “Enrichment of Aerobic Culture.” cis-DCE and TCE stocks in water were prepared by saturating distilled water with cis-DCE and TCE at 30° C. TCE and cis-DCE dissolved in the water to their solubility limit. The aqueous phase from these stocks was then added to the microcosms to yield the required concentrations (0.8 mg/L for TCE and 2 mg/L for cis-DCE). TBOS was introduced into the microcosms by injecting pure TBOS liquid using a microliter syringe.
Microbial culture from the wastewater treatment plant of Corvallis, Oregon grown on TBOS was tested for its ability to cometabolize TCE and cis-DCE. Microcosms were constructed with 4.0 mg (dry weight) of culture enriched from a continuous-feed batch reactor according to the procedure described in Example 1. Three microcosms and a control were evaluated: a poisoned control (i.e., a killed microcosm) with TBOS and TCE; a biologically active microcosm with TBOS and TCE; and a resting cell microcosm with only TCE; and an acetylene block microcosm with TBOS and TCE (having acetylene in the head space). The acetylene block experiment was used to investigate the presence of a monooxygenase enzyme.

[4] = tested on: microbially active Site 300 groundwater microcosm; experiment: Reductive dechlorination of TCE in Site 300 groundwater microcosm with TBOS and TKEBS added; type: cell-based; settings: TCE additions at 0, 135, 160 days
Procedure: The TCE dechlorination experiments were conducted in the same way as described in Example 3. In these experiments, however, TBOS and TKEBS were amended to samples of the groundwater microcosms.
Shown in FIGS. 11a-11c is a microbial active version of a Site 300 microcosm with TBOS and TKEBS added. However in this case both ethybutanol and butanol are utilized, compared to the poisoned control where they accumulated. Acetate, butyrate and hydrogen are produced as a result of fermentation reactions. […] Three additions of TCE are transformed at 0, 135, and 160 days, with the corresponding increases in c-DCE occurring. Hydrogen is shown to be utilized upon TCE addition and produced once TCE transformation has stopped.

[5] = Hydrolysis period of slow release compounds in bioremediation studies; type: physicochemical; settings: TBOS to 1-butanol, TPOS to phenol
Text: These alcohols can then be used by the microorganisms to cometabolize halogenated organics, such as TCE, for example. As discussed in the Examples below, the decrease in TBOS in a poisoned (killed) control compared similarly to the nonpoisoned (live) microbially active system under anaerobic conditions. Microbial activity was indicated by the production of acetate, butanol, butyrate, and hydrogen in the live microcosms, and the lack of production in the poisoned control. […] Thus, TBOS is not directly degraded, but is first hydrolyzed by reactions with water to form 1-butanol, which can then be used to drive the aerobic cometabolism of chlorinated organics.

[6] = Solubility in water (statement); type: physicochemical
[7] = Abiotic hydrolysis of TBOS and TKEBS in sterilized pH buffered solutions; type: physicochemical
[8] = tested on: microbial culture grown on TBOS; experiment: Aerobic cometabolism of cis-DCE by microorganisms grown on TBOS; type: cell-based; settings: biologically active microcosm
Procedure: as §1
The microcosms for aerobic cometabolism studies were carried out as described in Example 1 under the heading “Aerobic Biodegradation.” The bacterial culture used was that described in Example 1 under the heading “Enrichment of Aerobic Culture.” cis-DCE and TCE stocks in water were prepared by saturating distilled water with cis-DCE and TCE at 30° C. TCE and cis-DCE dissolved in the water to their solubility limit. […]
The microbial culture grown on TBOS was tested for its ability to cometabolize cis-DCE. […] Four microcosms and two controls were evaluated: a poisoned control with TBOS and cis-DCE; an autoclaved control with TBOS and cis-DCE; two biologically active microcosms with TBOS and cis-DCE; a resting cell microcosm with only cis-DCE; and an acetylene block microcosm with TBOS and cis-DCE.

[9] = tested on: microbial culture grown on TBOS; settings: cited from earlier work
[10] = pH 7.8 (site groundwater), 30 °C, 10 mg/L

Compound: ClC=C(Cl)Cl [TCE, Trichloroethylene]
- incubation time after which dechlorination of the substance was observed ([1]; TCE 5 mg/L, TBOS 1 g/L, Pt. Mugu microcosm): 40 days
- anaerobic TCE transformation in initial experiments (in words) ([2]; 125 mL serum bottles, groundwater microcosms): complete transformation of TCE to cis-DCE
- time for dechlorination of TCE to cis-DCE ([2]; TCE 100 mg/L, September '97 groundwater containing TKEBS and 2-ethylbutanol, 30 °C): 14 days
- TCE transformation in acetylene-blocked microcosm ([3]; TBOS and TCE, acetylene in head space, in 140 hours): about 20%
- time to complete cometabolism of TCE ([3]; TCE 0.89 mg/L (1.6 μmol), microcosm with TBOS 20 mg/L added): ≤ 65 h
- TCE cometabolism by resting cells, less than that achieved with TBOS addition ([3]; resting cells, no TBOS added): 15-20%
- TCE transformation (in words) [4]: rapidly transformed to c-DCE

Compound: c1ccc(O[Si](Oc2ccccc2)(Oc2ccccc2)Oc2ccccc2)cc1 [No. 4, Tetraphenoxysilane]
- period over which hydrolysis to the alcohol occurs [5]: weeks

Compound: CCCCO[Si](OCCCC)(OCCCC)OCCCC [No. 2, Tetrabutoxysilane]
- duration of TCE transformation resulting from addition of only TBOS ([1]; TBOS 1 g/L added at start of test): over 500 days
- persistence of TBOS in the microcosm ([1]; anaerobic Pt. Mugu microcosm, TBOS 1 g/L): over 450 days
- period over which hydrolysis to the alcohol occurs [5]: two month
- solubility [6]: very low
- 1-butanol formed per TBOS hydrolyzed ([7]; 30 °C, 10 mg/L): 4 moles of 1-butanol per mole of TBOS
- rate of transformation at pH 5 and pH 9 compared to pH 7 ([7]; 30 °C, 10 mg/L): increased by a factor of two
- Rates of Hydrolysis Based on 1-butanol production ([7]; pH 5.0, 30 °C, 10 mg/L): 0.19 µmol/day
- Rates of Hydrolysis Based on TBOS degradation ([7]; pH 5.0, 30 °C, 10 mg/L): -0.160 µmol/day
- effect of temperature on hydrolysis ([7]; pH 7, 10 mg/L, 15 °C vs 30 °C): Very little increase
- Rates of Hydrolysis Based on 1-butanol production ([7]; pH 7.0, 15 °C, 10 mg/L): 0.08 µmol/day
- Rates of Hydrolysis Based on TBOS degradation ([7]; pH 7.0, 15 °C, 10 mg/L): -0.060 µmol/day
- Rates of Hydrolysis Based on 1-butanol production ([7]; pH 7.0, 30 °C, 10 mg/L): 0.08 µmol/day
- Rates of Hydrolysis Based on TBOS degradation ([7]; pH 7.0, 30 °C, 10 mg/L): -0.062 µmol/day
- factor of increase in rate of hydrolysis on ten-fold increase in concentration ([7]; pH 7, 30 °C, 10 mg/L to 100 mg/L): 4
- Rates of Hydrolysis Based on 1-butanol production ([7]; pH 7.0, 30 °C, 100 mg/L): 0.26 µmol/day
- Rates of Hydrolysis Based on TBOS degradation ([7]; pH 7.0, 30 °C, 100 mg/L): -0.208 µmol/day
- Rates of Hydrolysis Based on 1-butanol production [7, 10]: 0.16 µmol/day
- Rates of Hydrolysis Based on TBOS degradation [7, 10]: -0.110 µmol/day
- Rates of Hydrolysis Based on 1-butanol production ([7]; pH 9.0, 30 °C, 10 mg/L): 0.22 µmol/day
- Rates of Hydrolysis Based on TBOS degradation ([7]; pH 9.0, 30 °C, 10 mg/L): -0.151 µmol/day

Compound: Cl[C@@H]1O[C@@H]1Cl [cis-DCE epoxide]
- half-life of cis-DCE epoxide transformation [8]: about 35 hours
- half-life of abiotic transformation of cis-DCE epoxide [9]: 70 h
